We go through 3 compounds from patent publication US20250101009A1, “Compounds, Compositions and Methods for Treatment of Age-Related Ocular Disorders” (priority 2022, published 2025).

One data set has as its target T1, acetylcholinesterase (Homo sapiens, UniProt P22303).
T1 construct: purchased
The data set is described as follows: Hydrolysis study in vitro with acetylcholinesterase (HPLC). Type of data set: in vitro ADME. The settings on record: for assay of compound remaining during enzymatic hydrolysis: acetylcholinesterase 2.0 mg/ml, simulated tear pH 7.4, 37.5° C. The method, then: The commercial esterase was dissolved in simulated tear (pH 7.4). Dissolving an appropriate amount of the compounds of the invention in solvent. The stock solutions were kept in screw-capped vials at 4° C. The reaction was initiated by adding stock solution of the prodrug to preheated esterase solution in a screw-capped vial at 37.5° C. The solution was kept in a water bath at 37.5° C. and at appropriate time intervals. 20 mL aliquot was taken and, after filtration using membrane syringe filter, analyzed immediately by HPLC.
The tear fluid was prepared by dissolving sodium chloride (0.67%, w/v), sodium bicarbonate (0.2% w/v) and calcium chloride dihydrate (0.008% w/v) in water and pH was adjusted to 7.4.
(§1) The acetylcholinesterase was dissolved in simulated tear (pH 7.4) to give a concentration of 2.0 mg/ml. Dissolving the appropriate number of compound 1 in pH 7.0 buffer solution to obtain a concentration of […]. The stock solutions were kept in screw-capped vials at 4° C. The reaction was initiated by adding 20 uL of a stock solution of the compound 1 in pH 7.0 buffer solution to 1 ml of preheated esterase solution in a screw-capped vial at 37.5° C., for a total of 10 identical reaction solutions. The reaction solutions were kept in a water bath at 37.5° C. and at 20 min intervals an aliquot was taken and, after filtration using membrane syringe filter, analyzed immediately by HPLC.
as §1, with “compound 2” for “compound 1”, “20 μL” for “20 uL”, “of 11” for “of 10”
as §1, with “compound 3” for “compound 1”, “20 μL” for “20 uL”, “1 mL” for “1 ml”, “of 12” for “of 10”

In another data set the test system is rabbit pupil. The data set is described as follows: Miotic effect in rabbits (pupil diameter). Type of data set: in vivo, male New Zealand White rabbits. The method, then: The ocular activity evaluation based on the miotic effect in rabbits
The pupil size was determined for several compounds in male New Zealand White rabbits. Pilocarpine hydrochloride (Vuity™) was used as positive control. The pupillometer was placed in the eye socket of the rabbit, and the camera was taken 0 min before and 5 min, 10 min, 15 min, 30 min, 45 min and 1 h after dosing. For the latter picture, take three photos at each time point. After the experiment, the pictures were sorted out to observe the pupil change trend after dosing. This method can be used to evaluate whether the miotic agent moiety in the compounds of the invention can constrict the rabbit's pupil.
Under a constant light source (light intensity 40 Lux), the rabbits were fixed in the rabbit box without anesthesia. Before the experiment, the pupil diameter (mm) before drug administration was measured with a pupil measuring ruler and photographed. […] The time of administration was recorded, and the pupil diameter was measured with a pupillometer and photographed with Canon EOS M6 Mark II (SLR) after 5 min, 10 min, 15 min, 30 min, 45 min, 1 h, 2 h, 3 h, 4 h and 5 h, respectively. […]

Setting [1] is: assay decreased more with increasing time.

T1 sequence (P22303 32-614, species assumed): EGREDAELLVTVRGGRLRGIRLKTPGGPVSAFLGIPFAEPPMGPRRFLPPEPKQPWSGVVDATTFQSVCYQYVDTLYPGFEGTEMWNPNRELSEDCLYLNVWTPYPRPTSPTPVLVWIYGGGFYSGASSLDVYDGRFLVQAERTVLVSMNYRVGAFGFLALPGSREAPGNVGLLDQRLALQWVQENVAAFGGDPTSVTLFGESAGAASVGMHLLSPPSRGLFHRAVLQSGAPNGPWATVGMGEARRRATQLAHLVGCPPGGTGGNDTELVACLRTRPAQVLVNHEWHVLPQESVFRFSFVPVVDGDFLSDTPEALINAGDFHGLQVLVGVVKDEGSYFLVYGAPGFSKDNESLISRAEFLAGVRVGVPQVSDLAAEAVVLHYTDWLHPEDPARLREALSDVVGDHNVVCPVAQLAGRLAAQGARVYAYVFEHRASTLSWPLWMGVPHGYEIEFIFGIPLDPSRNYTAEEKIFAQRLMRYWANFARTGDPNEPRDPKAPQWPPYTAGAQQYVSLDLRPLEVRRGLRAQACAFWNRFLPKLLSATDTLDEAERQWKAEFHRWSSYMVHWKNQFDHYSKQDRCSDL

As to `CC[C@@H]1C(=O)OC[C@@H]1Cc1c[n+](CCOC(=O)CCCC[C@@H]2CCSS2)cn1C` [Compound 2, 3-(2-((5-((R)-1,2-dithiolan-3-yl)pentanoyl)oxy)ethyl)-5-(((3R,4S)-4-ethyl-5-oxotetrahydrofuran-3-yl)methyl)-1-methyl-1H-imidazol-3-ium chloride], the “assay of compound remaining during enzymatic hydrolysis” value on acetylcholinesterase (0 min) is 100.00%; at acetylcholinesterase (20 min) it was 95.69%; at acetylcholinesterase (40 min), 88.08%; at acetylcholinesterase (60 min) it was 86.47%; at acetylcholinesterase (80 min), 80.61%; on acetylcholinesterase (100 min) it was 77.56%. Further, the “assay of compound remaining during enzymatic hydrolysis” value is 75.40% at acetylcholinesterase (120 min); 72.81% on acetylcholinesterase (140 min); 68.28% at acetylcholinesterase (160 min); 65.90% at acetylcholinesterase (180 min); 63.68% on acetylcholinesterase (200 min); 60.88% on acetylcholinesterase (220 min). Further, at acetylcholinesterase (setting [1]), the “hydrolysis by acetylcholinesterase (in words)” value (“hydrolysis … (in words)” below) was “hydrolyzed by acetylcholinesterase”.

Take `CC[C@@H]1C(=O)OC[C@@H]1Cc1c[n+](COC(=O)CCCC[C@@H]2CCSS2)cn1C` [Compound 1, 3-(((5-((R)-1,2-dithiolan-3-yl)pentanoyl)oxy)methyl)-5-(((3R,4S)-4-ethyl-5-oxotetrahydrofuran-3-yl)methyl)-1-methyl-1H-imidazol-3-ium chloride]: the “assay of compound remaining during enzymatic hydrolysis” value is 70.29% on acetylcholinesterase (0 min); 56.17% at acetylcholinesterase (20 min); 34.03% on acetylcholinesterase (40 min); 30.13% on acetylcholinesterase (60 min); 19.93% on acetylcholinesterase (80 min); 17.19% at acetylcholinesterase (100 min). Also, the “assay of compound remaining during enzymatic hydrolysis” value on acetylcholinesterase (120 min) is 15.06%; at acetylcholinesterase (140 min), 11.77%; on acetylcholinesterase (160 min), 8.45%; on acetylcholinesterase (180 min) it was 6.94%; on acetylcholinesterase (200 min), 5.05%. Moreover, the “hydrolysis … (in words)” value on acetylcholinesterase (after 200 minutes) is listed as “hydrolyzed by acetylcholinesterase almost completely”. In the data set with rabbit pupil, the “rabbit pupil under treatment (recorded images)” value was “shrinking”. Besides, the “miotic effect in rabbits versus positive control” value in the data set with rabbit pupil (1.25%, 20 μL/eye topical, compared with Vuity 1.25%) is on record as “comparable to the positive control drug”.

For the compound `CC[C@@H]1C(=O)OC[C@@H]1Cc1c[n+](CCOCCOCCOC(=O)CCCC[C@@H]2CCSS2)cn1C` [Compound 3, 3-(2-(2-(2-((5-((R)-1,2-dithiolan-3-yl)pentanoyl)oxy)ethoxy)ethoxy)ethyl)-5-(((3R,4S)-4-ethyl-5-oxotetrahydrofuran-3-yl)methyl)-1-methyl-1H-imidazol-3-ium], the “assay of compound remaining during enzymatic hydrolysis” value was 95.40% on acetylcholinesterase (0 min); 88.83% at acetylcholinesterase (20 min); 88.26% at acetylcholinesterase (40 min); 79.40% at acetylcholinesterase (60 min); 75.30% on acetylcholinesterase (80 min); 70.87% on acetylcholinesterase (100 min). For the same compound, the “assay of compound remaining during enzymatic hydrolysis” value is on record as 68.62% at acetylcholinesterase (120 min); 63.48% at acetylcholinesterase (140 min); 62.92% on acetylcholinesterase (160 min); 59.60% on acetylcholinesterase (180 min); 54.50% on acetylcholinesterase (200 min); 55.89% on acetylcholinesterase (220 min). Further, the “assay of compound remaining during enzymatic hydrolysis” value at acetylcholinesterase (240 min) is listed as 51.61%. The “hydrolysis … (in words)” value on acetylcholinesterase (setting [1]) is “hydrolyzed by acetylcholinesterase”.
